Laboratory results as given in ChEMBL document CHEMBL1201862, “PubChem BioAssay data set” (2004).
Calls of active or inactive are those of the source.

What was measured:
[1] = molecular target: Dual specificity protein kinase CLK1 (Homo sapiens, UniProt P49759); test: inhibition of human CLK1 activity – biochemical, cherry-picked samples, selectivity assay for Dyrk1A inhibitor project, dose response (AID 588811)
[2] = luciferase reporter signal suppression in cells – H4 neuroglioma cells, luminescence, dose response (AID 1990); assay type: functional, cell-based
BJ [3] = test: BJ-TERT fibroblast viability loss – cell-based, RAS-independent, luminescence, dose response (AID 1933); assay type: functional; settings: Homo sapiens
[4] = Luminescence Cell-Based Dose Response HTS to Identify Inhibitors of 5'UTR Stem-Loop Driven Prion Protein mRNA Translation in H4 Neuroglioblastoma Cells. [Related pubchem assays: 1827 (Project Summary), 1813 (Primary HTS)]; assay type: functional
[5] = alpha-synuclein stem-loop luciferase translation blockers – H4 neuroglioma cells, luminescence, confirmation (AID 1988); assay type: functional, cell-based
BJ [6] = test: cells; assay type: functional, cell-based; settings: Homo sapiens
BJ [7] = test: BJ-TERT-LT-ST fibroblast viability loss – cell-based, RAS-independent, luminescence, dose response (AID 1935); assay type: functional; settings: Homo sapiens;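 note: BJ fibroblasts immortalized with TERT plus LT and ST oncogenes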
[8] = DRD fibroblast viability loss – cell-based, non-viral oncogenic, luminescence, dose response (AID 1934); assay type: functional; settings: Homo sapiens
[9] = Luminescence Cell-Based Dose Retest to Confirm Inhibitors of Cancer Stem Cells. [Related pubchem assays (depositor defined):AID2717, AID2721]; assay type: functional; settings: Homo sapiens
[10] = molecular target: T1, Microphthalmia-associated transcription factor (Homo sapiens, UniProt O75030); test: reducers of TRPM1 reporter luminescence, concentration series – cell-based, SK-MEL-5, cherry-picked, set 3, MITF inhibitor project, dose response (AID 493073); assay type: functional;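 note: SK-MEL-5 melanoma cells with luciferase driven by the MITF target TRPM1 promoter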
T1 sequence (O75030 whole entry): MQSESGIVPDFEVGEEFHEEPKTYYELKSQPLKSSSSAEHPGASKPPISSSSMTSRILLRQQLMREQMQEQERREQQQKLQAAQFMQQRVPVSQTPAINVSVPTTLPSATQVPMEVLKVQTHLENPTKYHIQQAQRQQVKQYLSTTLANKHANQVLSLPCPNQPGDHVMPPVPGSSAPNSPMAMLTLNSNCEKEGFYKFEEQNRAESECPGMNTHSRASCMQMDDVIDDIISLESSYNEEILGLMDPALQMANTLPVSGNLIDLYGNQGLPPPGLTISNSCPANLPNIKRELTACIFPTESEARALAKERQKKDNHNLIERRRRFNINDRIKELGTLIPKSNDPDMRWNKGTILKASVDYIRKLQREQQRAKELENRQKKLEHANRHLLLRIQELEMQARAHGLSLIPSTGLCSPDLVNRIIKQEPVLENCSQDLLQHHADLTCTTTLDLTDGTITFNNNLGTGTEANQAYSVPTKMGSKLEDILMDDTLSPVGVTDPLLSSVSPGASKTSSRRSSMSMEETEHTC

A-375 = test: proliferation inhibition in MITF-low A375 cells – cell-based, cherry-pick samples, set 2, counter-screen for MITF modulator project, dose response (AID 540335); assay type: functional; settings: Homo sapiens
Melanocortin receptor 4 = Melanocortin receptor 4 (Homo sapiens, UniProt P32245); test: inhibitors of MC4R cAMP signaling – cell-based, TR-FRET, biased antagonists, dose response (AID 602298); assay type: functional;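 note: antagonist potency against agonist-stimulated cAMP production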
[11] = cAMP pathway inhibition in counterscreen cell line – TR-FRET cAMP detection, counter-screen for MC4R biased antagonist project, dose response (AID 602305); assay type: functional, cell-based;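 note: U2OS cells stimulated with forskolin near its EC80 as the cAMP inducer; potency is for inhibition of forskolin-stimulated cAMP signaling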
Hexokinase-1 = molecular target: T2, Hexokinase-1 (Homo sapiens, UniProt P19367); test: hexokinase 1 activity inhibitors, potency – biochemical, set 2, resazurin fluorescence coupled readout, selectivity assay for HKDC1 inhibitor project, SAR follow-up (AID 588356); assay type: functional
T2 sequence (P19367 whole entry): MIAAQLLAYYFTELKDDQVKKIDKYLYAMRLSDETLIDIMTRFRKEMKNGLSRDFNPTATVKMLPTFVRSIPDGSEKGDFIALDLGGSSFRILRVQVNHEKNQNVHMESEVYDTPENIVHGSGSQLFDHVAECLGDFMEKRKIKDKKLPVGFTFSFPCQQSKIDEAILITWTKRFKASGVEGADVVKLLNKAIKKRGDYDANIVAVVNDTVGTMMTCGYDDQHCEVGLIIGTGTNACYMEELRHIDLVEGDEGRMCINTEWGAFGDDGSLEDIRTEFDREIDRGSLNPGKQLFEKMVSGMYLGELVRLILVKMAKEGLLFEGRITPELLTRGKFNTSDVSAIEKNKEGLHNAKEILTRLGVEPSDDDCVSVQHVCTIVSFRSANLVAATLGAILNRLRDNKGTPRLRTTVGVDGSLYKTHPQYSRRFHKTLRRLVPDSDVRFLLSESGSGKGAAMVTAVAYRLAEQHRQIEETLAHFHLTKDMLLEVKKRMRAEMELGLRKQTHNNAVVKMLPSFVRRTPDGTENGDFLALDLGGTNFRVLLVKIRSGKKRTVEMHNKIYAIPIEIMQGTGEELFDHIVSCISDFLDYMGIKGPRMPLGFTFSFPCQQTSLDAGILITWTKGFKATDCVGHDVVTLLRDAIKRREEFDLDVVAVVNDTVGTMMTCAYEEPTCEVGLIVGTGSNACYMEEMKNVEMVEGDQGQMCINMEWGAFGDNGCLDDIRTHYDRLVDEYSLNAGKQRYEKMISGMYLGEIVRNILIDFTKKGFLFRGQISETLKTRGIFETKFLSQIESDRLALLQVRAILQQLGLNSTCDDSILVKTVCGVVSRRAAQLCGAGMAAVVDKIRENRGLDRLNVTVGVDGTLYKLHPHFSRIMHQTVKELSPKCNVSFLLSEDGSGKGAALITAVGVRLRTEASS

Hexokinase HKDC1 = molecular target: T3, Hexokinase HKDC1 (Homo sapiens, UniProt Q2TB90); test: analog inhibition of human HKDC1 activity – biochemical, set 2, SAR follow-up (AID 588355); assay type: functional
T3 sequence (Q2TB90 whole entry): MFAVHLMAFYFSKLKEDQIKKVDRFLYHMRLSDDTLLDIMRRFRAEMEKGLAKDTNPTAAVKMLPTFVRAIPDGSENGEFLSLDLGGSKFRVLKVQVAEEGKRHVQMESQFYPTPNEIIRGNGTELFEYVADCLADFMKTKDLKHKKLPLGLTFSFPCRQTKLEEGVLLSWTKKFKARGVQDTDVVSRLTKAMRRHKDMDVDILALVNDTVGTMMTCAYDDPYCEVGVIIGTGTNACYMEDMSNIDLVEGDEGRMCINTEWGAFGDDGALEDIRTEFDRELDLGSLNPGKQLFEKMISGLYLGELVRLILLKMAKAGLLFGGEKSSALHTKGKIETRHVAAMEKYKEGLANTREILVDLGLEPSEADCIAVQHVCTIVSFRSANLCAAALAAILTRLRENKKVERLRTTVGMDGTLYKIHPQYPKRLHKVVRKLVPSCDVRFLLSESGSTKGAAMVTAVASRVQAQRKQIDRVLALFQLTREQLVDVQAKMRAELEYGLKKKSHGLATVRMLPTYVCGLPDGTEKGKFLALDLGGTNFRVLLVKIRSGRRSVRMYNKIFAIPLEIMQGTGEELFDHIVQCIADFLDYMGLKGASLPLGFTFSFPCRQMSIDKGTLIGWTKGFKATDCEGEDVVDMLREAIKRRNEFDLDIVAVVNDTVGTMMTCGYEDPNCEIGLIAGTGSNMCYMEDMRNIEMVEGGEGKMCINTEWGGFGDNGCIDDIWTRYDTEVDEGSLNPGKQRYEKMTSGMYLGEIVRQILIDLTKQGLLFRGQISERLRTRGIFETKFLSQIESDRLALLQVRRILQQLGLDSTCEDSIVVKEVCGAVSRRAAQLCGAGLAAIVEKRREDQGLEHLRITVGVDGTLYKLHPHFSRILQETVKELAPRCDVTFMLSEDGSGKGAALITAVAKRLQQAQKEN

Jurkat = test: SAR Analysis of small molecule inhibitors of […] specific antigen receptor-induced NF-kB activation in a Jurkat cell line using a luminescence assay - Set 3. [Related pubchem assays (depositor defined):AID435022, AID435025, AID465]; assay type: functional, cell-based; settings: Homo sapiens
HEK293 [12] = test: SAR Analysis of small molecule inhibitors of B-cell specific antigen receptor-induced NF-kB activation in a HEK-293T cell line using a luminescence assay - Set 2. [Related pubchem assays (depositor defined):AID435022, AID435025, AID489021]; assay type: functional, cell-based; settings: Homo sapiens
HEK293 [13] = test: HEK293T cell viability loss, resazurin readout – resazurin fluorescence, cytotoxicity control for NF-kB activator project, SAR follow-up (AID 493251); assay type: functional, cell-based; settings: Homo sapiens
[14] = molecular target: T4, Short transient receptor potential channel 4 (Mus musculus, UniProt Q9QUQ5); test: SAR Analysis for the identification of selective inhibits of the transient receptor potential cation channel C4 (TRPC4): Automated Electrophysiology. [Related pubchem assays (depositor defined):AID2256]; assay type: functional
T4 sequence (Q9QUQ5 whole entry): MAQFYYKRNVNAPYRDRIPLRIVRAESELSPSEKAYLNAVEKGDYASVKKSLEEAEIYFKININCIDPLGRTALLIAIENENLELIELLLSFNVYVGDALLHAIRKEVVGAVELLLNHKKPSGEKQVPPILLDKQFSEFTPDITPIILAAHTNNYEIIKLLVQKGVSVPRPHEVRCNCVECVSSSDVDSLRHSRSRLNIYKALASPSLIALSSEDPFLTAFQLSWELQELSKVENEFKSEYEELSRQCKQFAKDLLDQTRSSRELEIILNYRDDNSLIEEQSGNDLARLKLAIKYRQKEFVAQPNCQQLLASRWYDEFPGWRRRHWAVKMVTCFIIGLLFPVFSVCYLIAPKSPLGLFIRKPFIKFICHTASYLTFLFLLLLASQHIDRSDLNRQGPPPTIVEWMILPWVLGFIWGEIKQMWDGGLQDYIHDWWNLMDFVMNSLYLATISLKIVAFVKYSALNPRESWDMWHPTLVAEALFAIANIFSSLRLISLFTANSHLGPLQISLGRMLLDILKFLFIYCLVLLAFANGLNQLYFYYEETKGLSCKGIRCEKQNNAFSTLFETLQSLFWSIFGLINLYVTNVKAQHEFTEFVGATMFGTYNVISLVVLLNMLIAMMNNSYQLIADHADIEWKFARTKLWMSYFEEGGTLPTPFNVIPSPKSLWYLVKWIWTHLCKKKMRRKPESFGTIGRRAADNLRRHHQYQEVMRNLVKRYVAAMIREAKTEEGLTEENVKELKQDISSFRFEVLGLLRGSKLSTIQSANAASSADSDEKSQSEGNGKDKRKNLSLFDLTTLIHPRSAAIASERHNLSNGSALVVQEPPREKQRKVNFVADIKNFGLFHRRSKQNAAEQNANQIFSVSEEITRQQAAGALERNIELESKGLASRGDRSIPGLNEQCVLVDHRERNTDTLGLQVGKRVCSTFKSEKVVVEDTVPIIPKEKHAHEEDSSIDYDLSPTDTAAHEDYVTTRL

[15] = molecular target: Short transient receptor potential channel 6 (Mus musculus, UniProt Q61143); test: mouse TRPC6 channel blockers, concentration series – HEK293 cells, membrane potential dye, IC50, selectivity assay for selective TRPC4 inhibitor project, dose response (AID 492987); assay type: functional, cell-based
[16] = molecular target: T4, Short transient receptor potential channel 4; test: potency of mouse TRPC4 calcium flux blockers – cell-based, HEK293 TRPC4/mu-opioid, DAMGO stimulus, Fluo-4, dose response (AID 492994); assay type: functional

Chain of Melanocortin receptor 4 (P32245 whole entry): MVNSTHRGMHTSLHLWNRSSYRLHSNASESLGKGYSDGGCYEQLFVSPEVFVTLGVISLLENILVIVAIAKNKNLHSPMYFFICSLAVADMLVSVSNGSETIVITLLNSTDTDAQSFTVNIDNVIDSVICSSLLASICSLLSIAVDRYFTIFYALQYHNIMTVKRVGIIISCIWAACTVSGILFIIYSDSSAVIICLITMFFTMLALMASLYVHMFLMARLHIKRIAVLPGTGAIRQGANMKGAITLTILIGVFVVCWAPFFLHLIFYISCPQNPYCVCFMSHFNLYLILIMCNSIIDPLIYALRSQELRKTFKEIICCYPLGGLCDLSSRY
Chain of Short transient receptor potential channel 6 (Q61143 whole entry): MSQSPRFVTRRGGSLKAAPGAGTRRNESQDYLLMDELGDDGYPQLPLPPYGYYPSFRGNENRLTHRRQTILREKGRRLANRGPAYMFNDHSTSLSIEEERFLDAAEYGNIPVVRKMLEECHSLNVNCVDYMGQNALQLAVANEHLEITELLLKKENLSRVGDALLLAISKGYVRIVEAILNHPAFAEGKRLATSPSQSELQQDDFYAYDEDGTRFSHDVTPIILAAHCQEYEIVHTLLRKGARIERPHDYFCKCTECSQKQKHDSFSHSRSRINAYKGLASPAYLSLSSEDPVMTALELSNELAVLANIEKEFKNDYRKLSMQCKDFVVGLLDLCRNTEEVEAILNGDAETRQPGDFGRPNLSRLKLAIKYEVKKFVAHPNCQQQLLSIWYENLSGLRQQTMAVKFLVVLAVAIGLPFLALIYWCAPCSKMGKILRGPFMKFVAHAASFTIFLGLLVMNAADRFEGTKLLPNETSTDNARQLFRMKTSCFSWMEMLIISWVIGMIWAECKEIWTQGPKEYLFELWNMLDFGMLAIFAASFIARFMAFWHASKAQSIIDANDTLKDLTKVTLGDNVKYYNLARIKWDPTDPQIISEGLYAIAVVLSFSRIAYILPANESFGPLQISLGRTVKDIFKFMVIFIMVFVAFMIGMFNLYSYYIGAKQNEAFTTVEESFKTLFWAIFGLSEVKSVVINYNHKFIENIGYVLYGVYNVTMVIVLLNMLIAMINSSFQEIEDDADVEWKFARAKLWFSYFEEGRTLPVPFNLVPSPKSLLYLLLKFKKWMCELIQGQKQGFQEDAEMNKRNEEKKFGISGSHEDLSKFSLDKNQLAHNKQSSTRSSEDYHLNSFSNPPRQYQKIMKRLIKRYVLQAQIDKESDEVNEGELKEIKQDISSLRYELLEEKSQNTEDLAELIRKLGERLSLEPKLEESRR
Chain of Dual specificity protein kinase CLK1 (P49759 whole entry): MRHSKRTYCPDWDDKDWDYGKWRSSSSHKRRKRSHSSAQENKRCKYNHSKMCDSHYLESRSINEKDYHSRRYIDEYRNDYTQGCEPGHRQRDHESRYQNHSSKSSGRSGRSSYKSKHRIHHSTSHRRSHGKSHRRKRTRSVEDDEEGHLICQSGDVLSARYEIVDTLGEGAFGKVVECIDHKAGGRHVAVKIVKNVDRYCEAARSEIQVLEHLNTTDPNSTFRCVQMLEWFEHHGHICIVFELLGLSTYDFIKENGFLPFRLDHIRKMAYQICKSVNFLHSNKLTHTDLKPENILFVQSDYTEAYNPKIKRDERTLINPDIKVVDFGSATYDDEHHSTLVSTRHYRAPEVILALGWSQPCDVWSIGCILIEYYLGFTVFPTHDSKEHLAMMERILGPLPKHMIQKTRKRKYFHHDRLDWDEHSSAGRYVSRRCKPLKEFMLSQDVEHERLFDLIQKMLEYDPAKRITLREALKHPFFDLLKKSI

In the case of Cc1nc(CN(C)c2ncnc3ccc(-c4ccc5c(c4)OCO5)cc23)cs1, the AC50 [1] is reported as < 0.00195 µM (active).
For O=C(/C=C/c1ccc(Cl)cc1)c1ccc([N+](=O)[O-])o1, the EC50 [2] was 8.88 µM (active), the EC50 (BJ [3]) was > 150 µM (not active) and the EC50 [4] was > 60 µM (not active). For the same compound, the EC50 [5] was > 120 µM (not active), the EC50 (BJ [6]) was > 150 µM (inconclusive) and the EC50 (BJ [7]) was > 150 µM (inconclusive). The EC50 [8] was 1.13 µM (inconclusive), the AC50 [9] was 1.21 µM (active) and the AC50 [10] was 5.32 µM (active). The AC50 (A-375) was 29.9 µM (active), the IC50 (Melanocortin receptor 4) was > 64.6 µM (inactive) and the IC50 [11] was > 64.6 µM (inactive).
In the case of CCc1ccc(NC2c3ccccc3C(=O)N2c2ccccc2C)cc1 (stereo unspecified), the IC50 (Hexokinase-1) is reported as > 80 µM (inactive) and the IC50 (Hexokinase HKDC1) is reported as > 80 µM (inactive).
With CC(C)NC(=O)CCc1nc(-c2ccc(C(C)(C)C)cc2)no1 the IC50 (Jurkat) was 29.2 µM (inactive), the IC50 (HEK293 [12]) was 13.5 µM (active) and the IC50 (HEK293 [13]) was > 80 µM (inactive).
With Cc1ccc2nc(N3CCCC3)cc(C)c2c1 the IC50 [14] was 3.71 µM (active), the IC50 [15] was 2.03 µM (active) and the IC50 [16] was 2.04 µM (active).
